Data reported in ChEMBL document CHEMBL4431390, “Dual action Smac mimetics-zinc chelators as pro-apoptotic antitumoral agents” (Bioorg Med Chem Lett, 2016).
pIC50, pKd: −log10 of the molar value. Calls of active or inactive are those of the source. The calls are words filed in the database; no cut-off is given here.

Assays:
[1] = biological target: T1, E3 ubiquitin-protein ligase XIAP (Homo sapiens, UniProt P98170); experiment: Displacement of FITC-Smac from human recombinant His-tagged XIAP BIR3 domain (241 to 356 residues) expressed in Escherichia coli BL21(DE3) cells after 3 hrs by fluorescence polarization assay
T1 sequence (P98170 whole entry, the tested form may be a part): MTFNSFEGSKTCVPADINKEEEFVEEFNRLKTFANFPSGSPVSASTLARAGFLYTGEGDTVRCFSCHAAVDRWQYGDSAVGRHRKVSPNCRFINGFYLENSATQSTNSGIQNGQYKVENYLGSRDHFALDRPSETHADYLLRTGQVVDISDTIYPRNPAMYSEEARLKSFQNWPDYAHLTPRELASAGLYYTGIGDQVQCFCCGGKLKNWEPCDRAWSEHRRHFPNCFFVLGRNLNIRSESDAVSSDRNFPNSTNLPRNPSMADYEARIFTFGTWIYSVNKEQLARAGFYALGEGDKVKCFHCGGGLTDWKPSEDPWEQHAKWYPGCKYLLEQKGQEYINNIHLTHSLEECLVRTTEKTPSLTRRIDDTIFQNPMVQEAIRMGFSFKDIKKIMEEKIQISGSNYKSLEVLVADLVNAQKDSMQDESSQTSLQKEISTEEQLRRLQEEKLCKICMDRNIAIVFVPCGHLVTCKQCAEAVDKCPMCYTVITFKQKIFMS

[2] = biological target: T1, E3 ubiquitin-protein ligase XIAP; experiment: Binding affinity to XIAP BIR3 domain in Smac mimetic-sensitive human MDA-MB-231 cells assessed as increase in cellular IAP1 degradation at 5 uM after 24 hrs by Western blot analysis; assay type: cell-based
[3] = biological target: T1, E3 ubiquitin-protein ligase XIAP; experiment: Binding affinity to XIAP BIR3 domain in Smac mimetic-sensitive human MDA-MB-231 cells assessed as increase in cleaved caspase-3 expression at 5 uM after 24 hrs by Western blot analysis; assay type: cell-based
[4] = biological target: T1, E3 ubiquitin-protein ligase XIAP; experiment: Binding affinity to XIAP BIR3 domain in Smac mimetic-sensitive human MDA-MB-231 cells assessed as increase in cleaved PARP expression at 5 uM after 24 hrs by Western blot analysis; assay type: cell-based
[5] = biological target: T1, E3 ubiquitin-protein ligase XIAP; experiment: Binding affinity to XIAP BIR3 domain in Smac mimetic-resistant human MDA-MB-453 cells assessed as increase in cellular IAP1 degradation at 5 uM after 24 hrs by Western blot analysis; assay type: cell-based
[6] = biological target: T1, E3 ubiquitin-protein ligase XIAP; experiment: Binding affinity to XIAP BIR3 domain in Smac mimetic-resistant human MDA-MB-453 cells assessed as increase in cleaved caspase-3 expression at 5 uM after 24 hrs by Western blot analysis; assay type: cell-based
[7] = biological target: T1, E3 ubiquitin-protein ligase XIAP; experiment: Binding affinity to XIAP BIR3 domain in Smac mimetic-resistant human MDA-MB-453 cells assessed as increase in cleaved PARP expression at 5 uM after 24 hrs by Western blot analysis; assay type: cell-based
[8] = Metal chelating activity assessed as compound-Zn2+ complex formation; assay type: functional
MDA-MB-231 [9] = experiment: Cytotoxicity against Smac mimetic-sensitive human MDA-MB-231 cells assessed as growth inhibition after 24 hrs by CellTiter-Glo assay; assay type: functional, cell-based; details: MDA-MB-231, 24 h
BT-549 [10] = experiment: Cytotoxicity against Smac mimetic-resistant human BT549 cells assessed as growth inhibition after 24 hrs by CellTiter-Glo assay; assay type: functional, cell-based; details: BT-549, 24 h
MDA-MB-453 [11] = experiment: Cytotoxicity against Smac mimetic-resistant human MDA-MB-453 cells assessed as growth inhibition after 24 hrs by CellTiter-Glo assay; assay type: functional, cell-based; details: MDA-MB-453, 24 h
MDA-MB-231 [12] = experiment: Effect on XIAP level in Smac mimetic-sensitive human MDA-MB-231 cells at 5 uM after 24 hrs by Western blot analysis; assay type: functional, cell-based
[13] = biological target: T1, E3 ubiquitin-protein ligase XIAP; experiment: Binding affinity to XIAP BIR3 domain in Smac mimetic-resistant human BT549 cells assessed as increase in cellular IAP1 degradation at 5 uM after 24 hrs by Western blot analysis
[14] = biological target: T1, E3 ubiquitin-protein ligase XIAP; experiment: Binding affinity to XIAP BIR3 domain in Smac mimetic-resistant human BT549 cells assessed as increase in cleaved caspase-3 expression at 5 uM after 24 hrs by Western blot analysis
[15] = biological target: T1, E3 ubiquitin-protein ligase XIAP; experiment: Binding affinity to XIAP BIR3 domain in Smac mimetic-resistant human BT549 cells assessed as increase in cleaved PARP expression at 5 uM after 24 hrs by Western blot analysis
BT-549 [16] = experiment: Effect on XIAP level in Smac mimetic-resistant human BT549 cells at 5 uM after 24 hrs by Western blot analysis; assay type: functional, cell-based
MDA-MB-453 [17] = experiment: Effect on XIAP level in Smac mimetic-resistant human MDA-MB-453 cells at 5 uM after 24 hrs by Western blot analysis; assay type: functional, cell-based
[18] = Metal chelating activity assessed as compound-Zn2+ complex formation at 50 uM after 15 mins by spectrofluorimetric analysis; assay type: functional

| Compound | pIC50 [1] | Activity [2] | Activity [3] | Activity [4] | Activity [5] | Activity [6] | Activity [7] | Activity [13] | Activity [14] | Activity [15] | pKd [8] | pIC50 (MDA-MB-231 [9]) | pIC50 (BT-549 [10]) | pIC50 (MDA-MB-453 [11]) | Activity (MDA-MB-231 [12]) | Activity (BT-549 [16]) | Activity (MDA-MB-453 [17]) | Activity [18] |
| --- | --- | --- | --- | --- | --- | --- | --- | --- | --- | --- | --- | --- | --- | --- | --- | --- | --- | --- |
| c1ccc(CN(CCN(Cc2ccccn2)Cc2ccccn2)Cc2ccccn2)nc1 | – | – | – | – | – | – | – | – | – | – | 15.52 | – | – | – | – | – | – | – |
| CC[C@H](NC)C(=O)N[C@@H]1C(=O)N2[C@@H](CC[C@@H]1CNC(=O)c1ccccc1)CC[C@H]2C(=O)N(Cc1ccccn1)Cc1ccccn1 | < 5.00 | inactive | inactive | inactive | – | – | – | – | – | – | – | – | – | – | – | – | – | – |
| C=CCc1cccc(/C=N/NC(=O)[C@@H](NC(=O)[C@@H]2CC[C@@H]3CC[C@H](CCNC(=O)c4ccccc4)[C@H](NC(=O)[C@H](CC)NC)C(=O)N32)c2ccccc2)c1O | 5.96 | Active | Active | Active | Active | inactive | inactive | Active | – | – | – | – | – | – | – | – | – | – |
| CC[C@H](NC)C(=O)N[C@@H]1C(=O)N2[C@@H](CC[C@@H]1CNC(=O)c1ccccc1)CC[C@H]2C(=O)N[C@H](C(=O)NCCN(Cc1ccccn1)Cc1ccccn1)c1ccccc1 | 7.04 | Active | Active | Active | Active | inactive | inactive | Active | Active | Active | – | – | – | – | – | – | – | – |
| c1ccc(CNCc2ccccn2)nc1 | – | – | – | – | – | – | – | – | – | – | 6.68 | – | – | – | – | – | – | Active |
| C=CCc1cccc(/C=N/NC(=O)CN2CCN(Cc3ccccc3)CC2)c1O [PAC-1] | < 5.00 | inactive | inactive | inactive | – | – | – | – | – | – | – | 5.33 | 4.84 | 5.70 | inactive | inactive | inactive | – |

Second part, led by results:

| pIC50 [1] | Activity [2] | Activity [3] | Activity [4] | Activity [5] | Activity [6] | Activity [7] | Activity [13] | Activity [14] | Activity [15] | Compound | pKd [8] | pIC50 (MDA-MB-231 [9]) | pIC50 (BT-549 [10]) | pIC50 (MDA-MB-453 [11]) | Activity (MDA-MB-231 [12]) | Activity (BT-549 [16]) | Activity (MDA-MB-453 [17]) | Activity [18] |
| --- | --- | --- | --- | --- | --- | --- | --- | --- | --- | --- | --- | --- | --- | --- | --- | --- | --- | --- |
| 6.43 | Active | Active | Active | Active | inactive | inactive | – | – | – | CC[C@H](NC)C(=O)N[C@@H]1C(=O)N2[C@@H](CC[C@@H]1CNC(=O)c1ccccc1)CC[C@H]2C(=O)N[C@H](C(=O)N(Cc1ccccn1)Cc1ccccn1)c1ccccc1 | – | – | – | – | – | – | – | – |
| – | Active | Active | Active | Active | inactive | inactive | Active | Active | Active | CC[C@H](NC)C(=O)N[C@@H]1C(=O)N2[C@@H](CC[C@@H]1CNC(=O)c1ccccc1)CC[C@H]2C(=O)NC(c1ccccc1)c1ccccc1 | – | 5.64 | < 4.60 | < 4.60 | inactive | inactive | inactive | – |
| < 5.00 | inactive | inactive | inactive | – | – | – | – | – | – | CC[C@H](NC)C(=O)N[C@@H]1C(=O)N2[C@@H](CC[C@@H]1CNC(=O)c1ccccc1)CC[C@H]2C(=O)N[C@@H](C(=O)N(Cc1ccccn1)Cc1ccccn1)c1ccccc1 | – | – | – | – | – | – | – | – |
| < 5.00 | inactive | inactive | inactive | – | – | – | – | – | – | CC[C@H](NC)C(=O)N[C@@H]1C(=O)N2[C@@H](CC[C@@H]1CNC(=O)c1ccccc1)CC[C@H]2C(=O)N[C@@H](C(=O)NCCN(Cc1ccccn1)Cc1ccccn1)c1ccccc1 | – | – | – | – | – | – | – | – |
